According to patent publication US20230203026A1, “PESTICIDAL COMPOSITIONS AND METHODS” (CORTEVA AGRISCIENCE LLC, priority 2017, published 2023):

Tests used:
[1] = system: beet armyworm (Spodoptera exigua, LAPHEG) ("BAW"); assay: Insecticidal test for beet armyworm, 128-well diet tray assay; type: in vivo; conditions: 168 h, 50 μg/cm^2 of test compound on artificial diet, second instar BAW larvae, 25° C., five to seven days, average of eight wells, read-out: BAW % Control (or Mortality) rating
Description: Insecticidal test for beet armyworm (Spodoptera exigua, LAPHEG) (“BAW”)
(§1) Bioassays on beet armyworm (BAW; Spodoptera exigua: Lepidoptera) are conducted using a 128-well diet tray assay. One to five second instar BAW larvae are placed in each well (3 mL) of the diet tray that had been previously filled with 1 mL of artificial diet to which 50 μg/cm^2 of the test compound (dissolved in 50 μL of 90:10 acetone-water mixture) had been applied (to each of eight wells) and then allowed to dry. Trays are covered with a clear self-adhesive cover, vented to allow gas exchange, and held at 25° C., 14:10 light-dark for five to seven days. Percent mortality is recorded for the larvae in each well; activity in the eight wells is then averaged.

[2] = system: Cabbage Looper (Trichloplusia ni, TRIPNI) ("CL"); assay: Insecticidal test for cabbage looper, 128-well diet tray assay; type: in vivo; conditions: Trichoplusia ni, 168 h; 50 μg/cm^2 of test compound on artificial diet; second instar CL larvae; 25° C.; five to seven days; average of eight wells; read-out: CL % Control (or Mortality) rating
Description: Insecticidal Test for Cabbage Looper (Trichloplusia ni, TRIPNI) (“CL”)
as §1, with “cabbage looper (CL; Trichloplusia ni:” for “beet armyworm (BAW; Spodoptera exigua:”, “CL” for “BAW”

Row | SMILES | mortality at 50 µg/cm2 [1] [%] | mortality at 50 µg/cm2 [2] [%]
1 | Cc1ccc(C(C)C)c(N2C(=O)CS/C2=N\C(=O)ON(Cc2ccc(-c3ncn(-c4ccc(OC(F)(F)F)cc4)n3)cc2)C(=O)OC(C)(C)C)c1 [A35, tert-Butyl (Z)-(((3-(2-isopropyl-5-methylphenyl)-4-oxothiazolidin-2-ylidene)carbamoyl)oxy)(4-(1-(4-(trifluoromethoxy)phenyl)-1H-1,2,4-triazol-3-yl)benzyl)carbamate] | 0 | 0
2 | Cc1ccc(OCC(F)(F)F)c(N2C(=O)CS/C2=N\C(=O)NOCc2ccc(-c3ncn(-c4ccc(OC(F)(F)F)cc4)n3)cc2)c1 [A30, (Z)-1-(3-(5-Methyl-2-(2,2,2-trifluoroethoxy)phenyl)-4-oxothiazolidin-2-ylidene)-3-((4-(1-(4-(trifluoromethoxy)phenyl)-1H-1,2,4-triazol-3-yl)benzyl)oxy)urea] | 50 to 100 | 50 to 100
3 | Cc1ccc(OCC(F)(F)F)c(N2C(=O)CS/C2=N\C(=O)NOC(C)c2ccc(-c3ncn(-c4ccc(OC(F)(F)F)cc4)n3)cc2)c1 (stereo not shown) [A19, (Z)-1-(3-(5-Methyl-2-(2,2,2-trifluoroethoxy)phenyl)-4-oxothiazolidin-2-ylidene)-3-(1-(4-(1-(4-(trifluoromethoxy)phenyl)-1H-1,2,4-triazol-3-yl)phenyl)ethoxy)urea] | 50 to 100 | 50 to 100
4 | Cc1ccc(C(C)C)c(N2C(=O)CS/C2=N\C(=O)NN(C)C(C)c2ccc(-c3ncn(-c4ccc(OC(F)(F)F)cc4)n3)cc2)c1 (stereo not shown) [A3, (Z)—N-(3-(2-isopropyl-5-methylphenyl)-4-oxothiazolidin-2-ylidene)-2-methyl-2-(1-(4-(1-(4-(trifluoromethoxy)phenyl)-1H-1,2,4-triazol-3-yl)phenyl)ethyl)hydrazine-1-carboxamide] | 50 to 100 | 50 to 100
5 | COc1ccc(CC(F)(F)F)c(N2C(=O)CS/C2=N\C(=O)NOCc2ccc(-c3ncn(-c4ccc(OC(F)(F)F)cc4)n3)cc2)c1 [A25, (Z)-1-(3-(5-Methoxy-2-(2,2,2-trifluoroethyl)phenyl)-4-oxothiazolidin-2-ylidene)-3-((4-(1-(4-(trifluoromethoxy)phenyl)-1H-1,2,4-triazol-3-yl)benzyl)oxy)urea] | 50 to 100 | 50 to 100
6 | O=C(/N=C1\SCC(=O)N1c1cc(Cl)ccc1OCC(F)(F)F)NOCc1ccc(-c2ncn(-c3ccc(OC(F)(F)F)cc3)n2)cc1 [A31, (Z)-1-(3-(5-Chloro-2-(2,2,2-trifluoroethoxy)phenyl)-4-oxothiazolidin-2-ylidene)-3-((4-(1-(4-(trifluoromethoxy)phenyl)-1H-1,2,4-triazol-3-yl)benzyl)oxy)urea] | 50 to 100 | 50 to 100
7 | Cc1ccc(C(F)(F)F)c(N2C(=O)CS/C2=N\C(=O)NOCc2ccc(-c3ncn(-c4ccc(OC(F)(F)F)cc4)n3)cc2)c1 [A24, (Z)-1-(3-(5-Methyl-2-(trifluoromethyl)phenyl)-4-oxothiazolidin-2-ylidene)-3-((4-(1-(4-(trifluoromethoxy)phenyl)-1H-1,2,4-triazol-3-yl)benzyl)oxy)urea] | 50 to 100 | 50 to 100
8 | CC(C)c1ccc(Cl)cc1N1C(=O)CS/C1=N\C(=O)NOC(C)c1ccc(-c2ncn(-c3ccc(OC(F)(F)F)cc3)n2)cc1 (stereo not shown) [A21, (Z)-1-(3-(5-Chloro-2-isopropylphenyl)-4-oxothiazolidin-2-ylidene)-3-(1-(4-(1-(4-(trifluoromethoxy)phenyl)-1H-1,2,4-triazol-3-yl)phenyl)ethoxy)urea] | 50 to 100 | 50 to 100
9 | CC(ONC(=O)/N=C1\SCC(=O)N1c1cc(Cl)ccc1OCC(F)(F)F)c1ccc(-c2ncn(-c3ccc(OC(F)(F)F)cc3)n2)cc1 (stereo not shown) [A20, (Z)-1-(3-(5-Chloro-2-(2,2,2-trifluoroethoxy)phenyl)-4-oxothiazolidin-2-ylidene)-3-(1-(4-(1-(4-(trifluoromethoxy)phenyl)-1H-1,2,4-triazol-3-yl)phenyl)ethoxy)urea] | 50 to 100 | 50 to 100
10 | Cc1ccc(Cl)c(N2C(=O)CS/C2=N\C(=O)NOCc2ccc(-c3ncn(-c4ccc(OC(F)(F)F)cc4)n3)cc2)c1 [A22, (Z)-1-(3-(2-Chloro-5-methylphenyl)-4-oxothiazolidin-2-ylidene)-3-((4-(1-(4-(trifluoromethoxy)phenyl)-1H-1,2,4-triazol-3-yl)benzyl)oxy)urea] | 50 to 100 | 50 to 100
11 | COCc1ccc(C)cc1N1C(=O)CS/C1=N\C(=O)NOCc1ccc(-c2ncn(-c3ccc(OC(F)(F)F)cc3)n2)cc1 [A27, (Z)-1-(3-(2-(Methoxymethyl)-5-methylphenyl)-4-oxothiazolidin-2-ylidene)-3-((4-(1-(4-(trifluoromethoxy)phenyl)-1H-1,2,4-triazol-3-yl)benzyl)oxy)urea] | 50 to 100 | 50 to 100
12 | COc1ccc(C(C)C)c(N2C(=O)CS/C2=N\C(=O)NOC(C)c2ccc(-c3ncn(-c4ccc(OC(F)(F)F)cc4)n3)cc2)c1 (stereo not shown) [A14, (Z)-1-(3-(2-Isopropyl-5-methoxyphenyl)-4-oxothiazolidin-2-ylidene)-3-(1-(4-(1-(4-(trifluoromethoxy)phenyl)-1H-1,2,4-triazol-3-yl)phenyl)ethoxy)urea] | 50 to 100 | 50 to 100
13 | COc1ccc(C(C)C)c(N2C(=O)CS/C2=N\C(=O)NOCc2ccc(-c3ncn(-c4ccc(OC(F)(F)F)cc4)n3)cc2)c1 [A26, (Z)-1-(3-(2-Isopropyl-5-methoxyphenyl)-4-oxothiazolidin-2-ylidene)-3-((4-(1-(4-(trifluoromethoxy)phenyl)-1H-1,2,4-triazol-3-yl)benzyl)oxy)urea] | 50 to 100 | 50 to 100
14 | CC(C)c1ccccc1N1C(=O)CS/C1=N\C(=O)NOCc1ccc(-c2ncn(-c3ccc(OC(F)(F)F)cc3)n2)cc1 [A29, (Z)-1-(3-(2-Isopropylphenyl)-4-oxothiazolidin-2-ylidene)-3-((4-(1-(4-(trifluoromethoxy)phenyl)-1H-1,2,4-triazol-3-yl)benzyl)oxy)urea] | 50 to 100 | 50 to 100
15 | CCCc1ccc(OC)cc1N1C(=O)CS/C1=N\C(=O)NOC(C)c1ccc(-c2ncn(-c3ccc(OC(F)(F)F)cc3)n2)cc1 (stereo not shown) [A15, (Z)-1-(3-(5-Methoxy-2-propylphenyl)-4-oxothiazolidin-2-ylidene)-3-(1-(4-(1-(4-(trifluoromethoxy)phenyl)-1H-1,2,4-triazol-3-yl)phenyl)ethoxy)urea] | 50 to 100 | 50 to 100
16 | Cc1ccc(C(F)(F)F)c(N2C(=O)CS/C2=N\C(=O)NN(C)C(C)c2ccc(-c3ncn(-c4ccc(OC(F)(F)F)cc4)n3)cc2)c1 (stereo not shown) [A37, (Z)-2-Methyl-N-(3-(5-methyl-2-(trifluoromethyl)phenyl)-4-oxothiazolidin-2-ylidene)-2-(1-(4-(1-(4-(trifluoromethoxy)phenyl)-1H-1,2,4-triazol-3-yl)phenyl)ethyl)hydrazine-1-carboxamide] | 50 to 100 | 50 to 100
17 | CCCc1ccc(OC)cc1N1C(=O)CS/C1=N\C(=O)NOCc1ccc(-c2ncn(-c3ccc(OC(F)(F)F)cc3)n2)cc1 [A23, (Z)-1-(3-(5-Methoxy-2-propylphenyl)-4-oxothiazolidin-2-ylidene)-3-((4-(1-(4-(trifluoromethoxy)phenyl)-1H-1,2,4-triazol-3-yl)benzyl)oxy)urea] | 50 to 100 | 50 to 100
